Data on one molecule can be found in patent US11389456B2, “Compounds and methods for treating oxalate-related diseases” (OxaluRx, Inc., priority 2018, dated 2022).

≈ marks a conversion by molar mass, not a printed value.

Data set [1] can be described thus: Solubility in phosphate buffered saline (PBS), pH 7.4. The conditions noted are these: phosphate buffer (PBS), aqueous buffer, kinetic from dmso stock; phosphate buffered saline pH 7.4, 1% DMSO, 1 hour shaking at room temperature. In kind it is physicochemical. The procedure, abridged: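 DMSO stock (10 mM) diluted into 100 mM phosphate buffer pH 7.4, or into deionized distilled water for the aqueous assay, at 1% final DMSO and shaken 1 h at room temperature. After centrifugation, supernatants quantified by LC-MS/MS against a calibration curve with internal standard.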

Data set [2] is described as follows: Protein binding (plasma equilibrium dialysis). Format: in vitro ADME. The conditions noted are these: 5 hours at 37° C. The procedure, abridged:
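Compound spiked into plasma at 1 μM final (0.2% DMSO) and dialysed against phosphate buffer for 5 hours at 37 °C with shaking. Donor and receiver samples, matrix-matched and acetonitrile-quenched with internal standard, quantified by LC/MS/MS alongside 0-hour plasma samples.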
(In general: In equilibrium dialysis free small molecules cross a membrane that holds back macromolecules.)

Data set [3] is described as follows: Stability in human plasma. In kind it is in vitro ADME. The conditions noted are these: read-out: Plasma Stability T1/2. The procedure, abridged: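 Pooled human plasma (pH 7.4-8) at 37° C, test compound spiked from a 0.02 mM solution in phosphate buffer with 0.5% BSA. Samples taken at 0, 5, 15, 30, 45 and 60 min, quenched with acetonitrile containing internal standard, and remaining compound measured by LC/MS.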

For data set [4], the target named is glycolate oxidase (GOX) in HepaRG-CAR cells (Homo sapiens (Human), UniProt Q9UJM8). The experiment in a line: HepaRG-CAR cell-based assay for quantitation of glycolate oxidase inhibition (cellular glycolate flux, GC-MS). As to conditions: HepaRG-CAR cells, 500 μM glycolate, 48 hours incubation; read-out: IC50.
Chain of glycolate oxidase (GOX) in HepaRG-CAR cells (Q9UJM8 whole entry): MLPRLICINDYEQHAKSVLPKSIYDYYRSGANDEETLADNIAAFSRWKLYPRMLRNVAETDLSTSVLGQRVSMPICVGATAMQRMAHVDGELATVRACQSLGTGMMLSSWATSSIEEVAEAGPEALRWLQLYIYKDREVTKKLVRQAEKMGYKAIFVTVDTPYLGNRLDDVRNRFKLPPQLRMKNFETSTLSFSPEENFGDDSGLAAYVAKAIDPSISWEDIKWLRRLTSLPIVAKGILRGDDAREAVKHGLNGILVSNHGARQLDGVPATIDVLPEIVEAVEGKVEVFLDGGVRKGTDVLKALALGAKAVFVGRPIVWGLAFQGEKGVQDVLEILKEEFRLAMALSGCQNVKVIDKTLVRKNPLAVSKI

`O=C(O)c1nn[nH]c1Sc1ccc(Cl)cc1` [Example I-001, 5-((4-chlorophenyl)thio)-1H-1,2,3-triazole-4-carboxylic acid] returned a solubility at 1 h in data set [1] of 94.5 µM (≈ 24.1 µg/mL). The recovery at 5 h, 1 μM in data set [2] came out at 75.4%. The half-life at 2 μM in data set [3] was found to be 42.3 min. Also, the IC50 in data set [4] stood at 1000 nM.

As a reminder, the solubility is the dissolved amount per volume that the medium holds. Low values mean little dissolved substance, high ones much dissolved substance. As a reminder, the IC50 is the concentration at which inhibition is half-maximal.
